# Test results published in publication PMC7482845, “G10 is a direct activator of human STING” (PLoS ONE, 2020).
# pEC50: −log10 of the molar value. Where two headings read alike, the source gives them in different places.
# What was measured:
# HAQ STING (THP-1 cells) = target: T1, HAQ STING (THP-1 cells) (Homo sapiens, UniProt Q86WV6, G230A/R293Q/R71H); experiment: Western blot of pSTING and pIRF3 in THP-1 cells; type: cell-based; conditions: immunoblot, 2 hours
# T1 construct: THP1 cells constitutively express the HAQ variant of human STING; host or cells: THP-1
# T1 sequence (Q86WV6 whole entry R71H/G230A/R293Q): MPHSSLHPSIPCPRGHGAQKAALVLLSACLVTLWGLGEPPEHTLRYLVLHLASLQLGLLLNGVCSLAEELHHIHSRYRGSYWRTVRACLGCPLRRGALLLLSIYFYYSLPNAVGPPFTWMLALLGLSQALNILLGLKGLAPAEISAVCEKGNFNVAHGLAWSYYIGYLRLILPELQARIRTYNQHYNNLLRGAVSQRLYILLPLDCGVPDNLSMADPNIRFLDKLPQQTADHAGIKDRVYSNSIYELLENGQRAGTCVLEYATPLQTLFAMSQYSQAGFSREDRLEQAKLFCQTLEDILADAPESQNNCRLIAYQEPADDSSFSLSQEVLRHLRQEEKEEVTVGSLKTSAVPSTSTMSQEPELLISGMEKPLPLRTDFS
# Protocol: (§1) 5 x 10^5 cells were seeded in 24-well plates in 500 μl growth medium and stimulated with novel compounds at 10μM. After 2 hours of treatment cells were harvested by centrifugation and cell pellets were lysed in RIPA buffer (20mM Tris-Cl, 150mM NaCl, 0.5mM EDTA, 1% NP40, 0.05% SDS) containing 1x phosphatase inhibitor cocktail 3 (Sigma) and 1x protease inhibitor (Roche) to extract the soluble fraction of protein. 10 μg of extracted protein was electrophoresed in 10% SDS-PAGE gels and transferred onto Immobilon-P membranes (Millipore).
# [1] = target: T2, recombinant CTT domain of R232 STING (Homo sapiens, UniProt Q86WV6, H232R); experiment: In vitro kinase assay, recombinant CTT domain of R232 STING plus recombinant TBK1; type: biochemical; conditions: cell free, immunoblot
# T2 construct: corresponding to the soluble domain of STING (138 to 379 aa) protein; purchased Cayman Chemicals (STING); Invitrogen (TBK1) 22816 (STING); A31514 (TBK1)
# T2 sequence (Q86WV6 138-379 H232R): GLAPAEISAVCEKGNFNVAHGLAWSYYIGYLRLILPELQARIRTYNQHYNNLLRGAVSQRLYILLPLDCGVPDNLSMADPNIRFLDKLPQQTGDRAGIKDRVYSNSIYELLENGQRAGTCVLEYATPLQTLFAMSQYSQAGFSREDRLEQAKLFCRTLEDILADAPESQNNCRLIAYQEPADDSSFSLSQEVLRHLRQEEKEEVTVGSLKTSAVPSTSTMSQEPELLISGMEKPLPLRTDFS
# Protocol: 50ng of recombinant STING protein (Cayman Chemicals Cat# 22816) corresponding to the soluble domain of STING (138 to 379 aa) protein or 1 μl of ER fraction (8mg/ml) containing full length STING from R232.hSTING was incubated with 20 ng of recombinant full length TBK1 protein (Invitrogen, Cat# A31514) in the presence/absence of test compound in 20 μl reaction buffer (50mM Tris-HCl of pH 7.4, 100mM NaCl, 5mM MgCl2, 5mM MnCl2, 10% glycerol, 0.2mM Na3VO4, 20mM β-glycero-PO4, 0.5mM ATP) and 0.01% BSA at 30 °C for 45 min. The reaction was quenched by addition of 2 μl of 10X EDTA to a final concentration of […]. Samples were treated with 4x gel loading dye followed by electrophoresis in 10% SDS-PAGE gels and transferred to Immobilon-P membranes (Millipore). […] Anti-rabbit HRP labelled secondary antibody (Abcam) and Clarity Max™ western ECL substrate (Biorad, Cat# 1705062) were used for visualization of bands using a BioRad XRS plus imager.
# [2] = target: H232 variant of human STING (Homo sapiens, UniProt Q86WV6); experiment: Luciferase (ISRE.ISG reporter) assay in HEK293T cells stably expressing H232 hSTING; type: cell-based; conditions: ISRE.ISG54 luciferase reporter, 18 hours, read-out: estimated EC50, H232 variant
# Description: • a) Stable STING expressing cells. Stable HEK293T STING-expressing cell lines were generated using plasmids purchased from Invivogen, CA, USA, that contain STING cDNA cloned into the pUNO-1 vector under the hEF1-HTLV promoter as well as the Blasticidin selection cassette. The human STING plasmids corresponding to the R232, H232 and HAQ variants were directly procured from Invivogen while the AQ and Q variants were created by mismatch PCR using cDNA from HAQ.STING and R232.STING variants respectively. These vectors were individually transfected into HEK293T cells using Lipofectamine (Invitrogen) and transfected cells were expanded under Blasticidin selection. These cells were further subjected to clonal selection using the limiting dilution method to obtain clonally pure populations of HEK293T cells expressing each of the five human STING variants. Clones with minimal ligand independent activation of STING were chosen for cellular experiments. • b) N-His R232.hSTING HEK293T cells. […]
# (§2) […] clonally selected HEK293T-hSTING-Luciferase cells or control HEK293T-Luciferase cells were seeded in 384-well plates in growth medium and stimulated with known STING agonists or novel compounds. Supernatants were removed after 20 hours of treatment and secretory reporter gene activity was measured using the Quanti-Luc detection system (Invivogen) on a Spectramax i3X luminometer.
# [3] = target: T3, R232 variant of human STING (THP-1-Dual KI-hSTING-R232 cells) (Homo sapiens, UniProt Q86WV6, H232R); experiment: Western blot of pSTING and pIRF3 in THP1-R232 knock in cells; type: cell-based; conditions: immunoblot, 2 hours, R232 STING in HAQ knockout background
# T3 construct: host or cells: THP-1-Dual KI-hSTING-R232
# T3 sequence (Q86WV6 whole entry H232R): as the sequence (Q86WV6 whole entry R71H/G230A/R293Q) above, with H71R, A230G, H232R, Q293R counted along it
# Protocol: HEK293T cells were procured from ATCC. THP-1 and THP-1-Dual KI-hSTING-R232 cells which contained the R232 version of STING was knocked in to THP1 cells in which the HAQ version was ablated, were procured from Invivogen, CA, USA.
# as §1, with “(Millipore). […] Anti-rabbit HRP label secondary antibody (Abcam) and Clarity Max™ western ECL substrate (Biorad—cat# 1705062) were used for visualization of bands using a BioRad XRS plus imager.” for “(Millipore).”
# [4] = target: T4, R232 variant of human STING (Homo sapiens, UniProt Q86WV6, H232R); experiment: Luciferase (ISRE.ISG reporter) assay in HEK293T cells stably expressing R232 hSTING; type: cell-based
# T4 construct: the ER fraction from R232.STING transfected HEK293T cells which contained full length STING
# T4 sequence (Q86WV6 whole entry H232R): as the sequence (Q86WV6 whole entry R71H/G230A/R293Q) above, with H71R, A230G, H232R, Q293R counted along it
# Description: • a) Stable STING expressing cells. Stable HEK293T STING-expressing cell lines were generated using plasmids purchased from Invivogen, CA, USA, that contain STING cDNA cloned into the pUNO-1 vector under the hEF1-HTLV promoter as well as the Blasticidin selection cassette. The human STING plasmids corresponding to the R232, H232 and HAQ variants were directly procured from Invivogen while the AQ and Q variants were created by mismatch PCR using cDNA from HAQ.STING and R232.STING variants respectively. These vectors were individually transfected into HEK293T cells using Lipofectamine (Invitrogen) and transfected cells were expanded under Blasticidin selection. These cells were further subjected to clonal selection using the limiting dilution method to obtain clonally pure populations of HEK293T cells expressing each of the five human STING variants. Clones with minimal ligand independent activation of STING were chosen for cellular experiments. • b) N-His R232.hSTING HEK293T cells. HEK293T cells stably expressing N-His R232.hSTING were generated by the following described method. N-His R232.hSTING.pcDNA Myc B plasmid was transfected into HEK293T cells using Lipofectamine reagent (Invitrogen) and the transfected cells were selected under Hygromycin. Stably STING expressing HEK293T cells thus selected were further subjected to single cell clonal selection using the limiting dilution method to obtain a clonally pure population of HEK293T cells expressing the human R232 STING variant.
# […] clonally selected HEK293T-hSTING-Luciferase cells or control HEK293T-Luciferase cells were seeded in 384-well plates in growth medium and stimulated with known STING agonists or novel compounds. […]
# [5] = target: T5, mSTING (wild type CT26 cells) (Mus musculus, UniProt Q3TBT3); experiment: Western blot of pSTING and pIRF3 in parent CT26 cells; type: cell-based; conditions: immunoblot (S10 Fig)
# T5 construct: endogenous in cells; host or cells: CT26 (parent line, and the endogenous protein in R232.hSTING.CT26)
# T5 sequence (Q3TBT3 whole entry): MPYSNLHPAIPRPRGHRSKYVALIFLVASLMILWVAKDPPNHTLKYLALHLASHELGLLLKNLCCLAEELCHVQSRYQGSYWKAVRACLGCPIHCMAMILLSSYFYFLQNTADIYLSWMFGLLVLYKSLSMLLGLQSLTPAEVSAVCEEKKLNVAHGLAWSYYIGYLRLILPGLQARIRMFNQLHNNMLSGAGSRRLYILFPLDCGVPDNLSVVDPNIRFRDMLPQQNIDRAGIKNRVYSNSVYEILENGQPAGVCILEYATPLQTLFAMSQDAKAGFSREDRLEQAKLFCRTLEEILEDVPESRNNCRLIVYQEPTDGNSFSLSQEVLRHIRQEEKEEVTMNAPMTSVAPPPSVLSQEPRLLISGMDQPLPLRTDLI
# Protocol: as §1, with “(Millipore). […] Anti-rabbit HRP label secondary antibody (Abcam) and Clarity Max™ western ECL substrate (Biorad—cat# 1705062) were used for visualization of bands using a BioRad XRS plus imager.” for “(Millipore).”
# R232.hSTING (CT26 cells) = target: T6, R232.hSTING (CT26 cells) (Homo sapiens, UniProt Q86WV6, H232R); experiment: Western blot of Hu-pSTING and pIRF3 in R232.hSTING.CT26 cells; type: cell-based; conditions: immunoblot, 2 hours
# T6 construct: expressed in transfected cells; host or cells: CT26 (murine)
# T6 sequence (Q86WV6 whole entry H232R): as the sequence (Q86WV6 whole entry R71H/G230A/R293Q) above, with H71R, A230G, H232R, Q293R counted along it
# Protocol: as §1
# parent HEK293T cells = experiment: Luciferase assay in parent (control) HEK293T cells without STING; type: cell-based, human; conditions: HEK293T cells that do not express STING (S1 Fig)
# Protocol: as §2
compound,measurement,setting,value
"O=C(NCc1ccco1)c1ccc2c(c1)N(Cc1c(F)cccc1Cl)C(=O)CS2 [Compound G10, 4-(2-Chloro-6-fluorobenzyl)-N-(furan-2-ylmethyl)-3-oxo-3,4-dihydro-2H-benzo[b][1,4]thiazine-6-carboxamide]","phosphorylation of STING and IRF3 (pSTING, pIRF3) in THP1 cells",HAQ STING (THP-1 cells),unable to detect either pSTING or pIRF3
same,"formation of pSTING by TBK1, recombinant CTT domain of R232 STING",[1],activated
same,pEC50,[2],5.37
same,phosphorylation of STING and IRF3 in THP1-R232 cells,[3],led to phosphorylation of STING and IRF3
same,pEC50,"[4]; HEK293T cells expressing R232 hSTING, luciferase reporter, read-out: HEK.R232 EC50",5.60
same,pEC50,"[4]; ISRE.ISG54 luciferase reporter, HEK293T, 18 hours, read-out: estimated EC50, R232 variant",5.60
same,"phosphorylation of mSTING or mIRF3, parent CT26 line",[5],did not lead to phosphorylation
same,phosphorylated hSTING (and mIRF3) in CT26 cells overexpressing R232.hSTING,R232.hSTING (CT26 cells),significant amounts
same,response of parent HEK293T cells (reporter gene expression),parent HEK293T cells,unresponsive
